For the experiment, the system named is performance anxiety in the context of public speaking. In words: Open clinical trial: oral doses taken before public speaking, subject self-reports. It counts as in vivo, human. Particulars: Subject 2, 40 mg propranolol HCl alone. The text has this: Subjects were selected based on their history of experiencing performance anxiety in the context of public speaking. Subjects received oral doses of the present composition, as described below, at various times prior to speaking engagements. The parameters assessed included but were not limited to the following: tremor of voice and hands, urinary and/or fecal urgency, tachycardia, anxiety, and side effects (e.g., dry mouth).

As to `CC(C)NCC(O)COc1cccc2ccccc12.Cl` (racemic) [propranolol HCl, (RS)-1-(isopropylamino)-3-(1-naphthyloxy)propan-2-ol], under “ninety minutes prior”, the fecal urgency entry is “did report fecal urgency”; the quality of presentation result is “less colorful and confident presentation”; the voice tremor entry was “no tachycardia or voice tremor”. For the setting “ninety minutes prior to public speaking”, the tachycardia entry is listed as “no tachycardia”.

Source of the values: patent publication US20110218215A1, “Compositions and Methods for Treating Social Anxiety” (priority 2010, published 2011).
